Publication doi:10.1101/2022.06.29.498065v2 (biorxiv, 2022)

Biological target: KFDV NS5 (Kyasanur Forest disease virus, UniProt D7RF80)
Assay: biochemical

KFDV NS5, sequence (D7RF80 2518-3410 limits assumed): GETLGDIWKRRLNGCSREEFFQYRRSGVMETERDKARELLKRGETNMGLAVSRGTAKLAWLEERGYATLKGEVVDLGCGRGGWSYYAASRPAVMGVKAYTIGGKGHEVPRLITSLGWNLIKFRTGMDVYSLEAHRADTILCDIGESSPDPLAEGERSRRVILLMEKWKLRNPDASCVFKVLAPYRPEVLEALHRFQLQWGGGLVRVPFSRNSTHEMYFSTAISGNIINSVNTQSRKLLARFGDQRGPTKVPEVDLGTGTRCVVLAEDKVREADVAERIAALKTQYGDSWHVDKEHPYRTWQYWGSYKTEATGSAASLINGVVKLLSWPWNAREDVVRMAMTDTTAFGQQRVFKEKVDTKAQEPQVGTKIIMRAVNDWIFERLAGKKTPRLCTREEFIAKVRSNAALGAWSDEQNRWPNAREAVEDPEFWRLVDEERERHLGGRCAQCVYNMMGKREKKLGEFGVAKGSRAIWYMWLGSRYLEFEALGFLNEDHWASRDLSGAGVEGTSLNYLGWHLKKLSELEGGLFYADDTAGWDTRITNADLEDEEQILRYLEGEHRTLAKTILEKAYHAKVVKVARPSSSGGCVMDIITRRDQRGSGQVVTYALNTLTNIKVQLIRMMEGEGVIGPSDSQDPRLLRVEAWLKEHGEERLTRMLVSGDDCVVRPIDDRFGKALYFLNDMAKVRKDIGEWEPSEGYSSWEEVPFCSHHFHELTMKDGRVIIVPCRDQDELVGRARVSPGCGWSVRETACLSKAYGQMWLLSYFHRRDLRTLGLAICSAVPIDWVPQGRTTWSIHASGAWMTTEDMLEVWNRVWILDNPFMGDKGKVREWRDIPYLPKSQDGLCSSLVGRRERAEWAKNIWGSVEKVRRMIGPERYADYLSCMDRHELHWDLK

| Structure (SMILES) | IC50 |
| --- | --- |
| CC(C)OC(=O)[C@H](C)N[P@](=O)(OC[C@H]1O[C@@H](n2ccc(=O)[nH]c2=O)[C@](C)(F)[C@@H]1O)Oc1ccccc1 [Sofosbuvir, L-Alanine, N-[[P(S),2’R]-2’-deoxy-2’-fluoro-2’-methyl-P-phenyl-5’-uridylyl]-,1-methyl ethyl ester] | 3.45 ± 0.012 µM |
| C[C@@]1(F)[C@H](O)[C@@H](COP(=O)(O)OP(=O)(O)OP(=O)(O)O)O[C@H]1n1ccc(=O)[nH]c1=O [sofosbuvir triphosphate, β-D-2’-deoxy-2’-fluoro-2’-C-methyluridine 5’-triphosphate] | 3.73 ± 0.033 µM |
